Tested on: flavonol 8-hydroxylase (MFB088 crude enzyme)
Assay: Hydroxylase activity of MFB088 crude enzyme on flavonoid substrates (UPLC-TOF MS, ion trap MS/MS)
Assay type: biochemical, Lotus japonicus
Conditions: 0.048 nmol substrate, FAD, NADPH, pH 7.0, 30° C., 15 minutes; product detected by UPLC-TOF MS / ion trap MS/MS; not detected in negative control
Method: The yeast cells were centrifuged and recovered, and then lysed using glass beads. The lysate was centrifuged at 8000×g for 10 minutes. The supernatant was recovered and further centrifuged at 15000×g for 10 minutes to give the crude enzyme fraction of the protein encoded by MFB088 (hereinafter referred to as the MFB088 crude enzyme).
MFB088 crude enzyme solution, 2 μl (containing 2.5 μg of proteins); 0.1 M KH2PO4/K2HPO4 solution (containing 0.4% ascorbic acid: pH 7.0), 88 μl; 0.048 nmol eriodictyol/5 […] of H2O; 0.001 nmol FAD and 0.48 nmol NADPH/5 μl of H2O.
NADPH was added to start the reaction. After the reaction proceeded at 30° C. for 15 minutes, 10 μl of glacial acetic acid was added to stop the reaction. An […] was further added to extract the phenol compound twice (the added […]: 70 μl and 50 μl). The organic layer was recovered and used as a sample (hereinafter referred to as “MFB088 crude enzyme reaction product”). The components were analyzed by UPLC-TOF MS and ion trap MS/MS.
For analysis of the MFB088 crude enzyme reaction product, Waters Acquity UPLC™ system (Waters Corporation) equipped with time-of-flight mass spectrometer LCT Premier (Waters Corporation, Massachusetts, USA) was used. The analysis was performed using an ACQUITY UPLC™ BEH C18 column (particle diameter of 1.7 μm, column size of 2.1 mm I.D.×100 mm, Waters Corporation) under the conditions of flow rate of 0.3 ml/min and column temperature at 40° C. Using solvent A (0.1% formic acid-acetonitrile) and solvent B (0.1% formic acid aqueous solution), the reaction product was eluted by linear gradient from 70% B in 0 minute to 70% A in 20 minutes. The reaction product was detected by the time-of-flight mass spectrometer in the cation detection mode set forth below: capillary voltage of 2500 V, sample cone of 100 V, desolvation temperature at 250° C., source temperature at 120° C., and nitrogen gas flow of 6001/hour.
The components of the MFB088 crude enzyme reaction product was analyzed by ion trap MS/MS. High performance liquid chromatography (HPLC) system Agilent 1200 series (Agilent Technologies, California, USA) equipped with ion trap mass spectrometer LTQ XL (Thermo Fisher Scientific, Massachusetts, USA) was used for the MS/MS analysis. HPLC was performed using a TSKgel ODS-80™ column (particle diameter of 5 μm, column size of 4.6 mm I.D.×150 mm, TOSOH, Japan) under the conditions of flow rate of 0.5 ml/min and column temperature at 40° C. Using solvent A (0.1% formic acid-acetonitrile) and solvent B (0.1% formic acid aqueous solution), the reaction product was eluted by linear gradient from 70% B in 0 minute to 85% A in 30 minutes. The reaction product was ionized by electrospray ionization method and cations were detected under the following conditions: spray voltage of 4.0 kV, capillary temperature at 300° C., nitrogen sheath of 40 units, and auxiliary gas of 15 units. In the MS/MS analysis of the reaction product [M+H]+, collision-induced dissociation (CID) was performed under the conditions below to detect the fragment peak: normalized collision energy of 35, activation Q of 0.25 and activation time for 30 ms.
MFB088 crude enzyme solution, 2 μl (containing 2.5 μg of proteins); 0.1 M KH2PO4/K2HPO4 solution (containing 0.4% ascorbic acid: pH 7.0), 88 μl; 0.048 nmoleriodictyol/5 μl of H2O; 0.001 nmol FAD and 0.48 nmol NADPH/5 μl of H2O.
MFB088 crude enzyme solution, 2 μl (containing 2.5 μg of protein); 0.1 M KH2PO4/K2HPO4 solution (containing 0.4% ascorbic acid: pH 7.0), 88 μl; 0.048 nmol luteolin/5 μl of H2O; 0.001 nmol FAD and 0.48 nmol NADPH/5 μl of H2O.
The reactivity requiring kaempferol and apigenin as substrates was analyzed. The reaction product was recovered in a manner similar to EXAMPLES described above and the components were analyzed by UPLC-TOF MS.

**Q.** Which “hydroxylation of substrate by the MFB088 crude enzyme” value (“hydroxylation of substrate” below) does the source give for O=c1cc(-c2ccc(O)cc2)oc2cc(O)cc(O)c12 [apigenin] here?
**A.** The value was “hydroxyl group is attached to apigenin”.

**Q.** Which “hydroxylation of substrate” value does the source give for O=C1c2c(O)cc(O)cc2O[C@H](c2ccc(O)c(O)c2)[C@H]1O [dihydroquercetin] here?
**A.** Its value is “two hydroxyl groups were attached”.

**Q.** Which “hydroxylation of substrate” value does the source give for O=c1cc(-c2ccc(O)c(O)c2)oc2cc(O)cc(O)c12 [luteolin] here?
**A.** Its value is “hydroxyl group is attached to luteolin”.

**Q.** With O=C1C[C@@H](c2ccc(O)c(O)c2)Oc2cc(O)cc(O)c21 [eriodictyol] as the compound, how does the “hydroxylation of substrate” value read?
**A.** The value was “hydroxyl-substituted”.

**Q.** For O=c1c(O)c(-c2ccc(O)c(O)c2)oc2cc(O)cc(O)c12 [quercetin], which “hydroxylation of substrate” value is on record?
**A.** Its value is “substituted with hydroxyl group at position 8 and converted into gossypetin”.

**Q.** Which “hydroxylation of substrate” value does the source give for O=C1C[C@@H](c2ccc(O)cc2)Oc2cc(O)cc(O)c21 [naringenin] here?
**A.** Its value is “two hydroxyl groups were attached”.

**Q.** Which “hydroxylation of substrate” value does the source give for O=c1c(O)c(-c2ccc(O)cc2)oc2cc(O)cc(O)c12 [kaempferol] here?
**A.** Its value is “hydroxyl group is attached to kaempferol at position 8”.

Tested on: nuclear factor-κB (NF-κB)
Assay: not given
Conditions: leading to cell apoptosis potentiation; cited from earlier work

**Q.** Which “effect on activation of NF-κB” value does the source give for O=c1c(O)c(-c2ccc(O)c(O)c2)oc2c(O[C@@H]3O[C@H](CO)[C@@H](O)[C@H](O)[C@H]3O)c(O)cc(O)c12 [gossypin, gossypetin-8-glucoside] here?
**A.** Its value is “inhibits the activation of nuclear factor-κB (NF-κB)”.

Tested on: low density lipoprotein receptor (LDLR)
Assay: not given
Conditions: through activation of extracellular signal-regulated kinase (ERK); cited from earlier work

**Q.** With O=c1c(O)c(-c2ccc(O)c(O)c2)oc2c(O[C@@H]3O[C@H](CO)[C@@H](O)[C@H](O)[C@H]3O)c(O)cc(O)c12 [gossypin, gossypetin-8-glucoside] as the compound, how does the “effect on LDLR” value read?
**A.** The value was “upregulates low density lipoprotein receptor (LDLR)”.

Source: patent US20130145496A1, “FLAVIN ENZYME HAVING FLAVONOL 8-HYDROXYLASE ACTIVITY AND USE THEREOF” (SUNTORY HOLDINGS LIMITED, priority 2010, published 2013)
